Columns and labels:
[1] = tested on: hydrocodone-induced antinociception; assay: 55° C. warm-water tail-flick assay: inhibition of hydrocodone-induced antinociception; format: in vivo, mice; settings: for time of peak effect of antinociception inhibition: hydrocodone 3.2 mg/kg i.v.
[2] = Tolerability of i.v. 6β-naltrexol infusion in opioid-naïve volunteers; settings: i.v. infusion over 30 minutes, up to 20 mg

Substance: 6β-naltrexol
- Antinociception ID50 ([1]; antagonist i.v. pretreatment, hydrocodone A90 3.2 mg/kg i.v.): 0.222 mg/kg
- Antinociception ID50 ([1]; antagonist p.o. co-administered with hydrocodone A90 32 mg/kg p.o.): 12.3 mg/kg
- Antinociception ID50 ([1]; antagonist p.o. pretreatment, hydrocodone A90 3.2 mg/kg i.v.): 2.35 mg/kg
- time of peak effect of antinociception inhibition ([1]; i.v. administration): 90 min
- time of peak effect of antinociception inhibition ([1]; p.o. administration): 120 min
- tolerability [2]: well tolerated

Source: patent US8748448B2, “Combination analgesic employing opioid agonist and neutral antagonist” (AIKO Biotechnology, priority 2007, dated 2014)
